{"source": "paper PMC3718800", "about": "“Structural and Functional Perturbation of Giardia lamblia Triosephosphate Isomerase by Modification of a Non-Catalytic, Non-Conserved Region” (PLoS ONE, 2013)", "key": {"[1]": {"target": "T1, C222D GlTIM (Giardia intestinalis, UniProt P36186, C222D)", "T1 construct": "made in house; host or cells: E. coli BL21(DE3)pLys", "T1 sequence (P36186 whole entry C222D)": "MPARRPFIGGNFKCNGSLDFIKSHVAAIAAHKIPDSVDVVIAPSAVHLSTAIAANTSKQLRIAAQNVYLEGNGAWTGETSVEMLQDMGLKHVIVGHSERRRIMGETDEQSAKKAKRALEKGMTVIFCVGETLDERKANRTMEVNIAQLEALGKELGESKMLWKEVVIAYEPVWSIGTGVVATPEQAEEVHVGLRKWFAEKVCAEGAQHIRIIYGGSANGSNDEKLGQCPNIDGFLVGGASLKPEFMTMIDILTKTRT", "assay": "Competitive inhibition of TIM activity by 2-PG (global fit)", "format": "biochemical, Giardia lamblia", "details": "2-PG vs C222D", "method": "(§1) Glyceraldehyde 3-phosphate (GAP), buffers, salts and all the other analytical grade reagents were acquired from Sigma–Aldrich; α-glycerol-3-phosphate dehydrogenase (α-GDH) was from Roche, crystallization screen kits were obtained from Hampton Research. Restriction enzymes, DNA polymerase and T4 DNA ligase were purchased from New England BioLabs and Invitrogene. Oligonucleotide synthesis and DNA sequencing was performed at the Unidad de Biología Molecular, Instituto de Fisiología Celular, UNAM. Protein concentration was determined by the bicinchoninic acid method or by absorbance at 280 nm for pure GlTIM (ε280 = 26600 M^-1cm^-1). The TIM activity was determined at 25°C by a coupled assay, following the decrease in absorbance at 340 nm. The standard reaction mixture contained 100 mM triethanolamine/10 mM EDTA, pH 7.4 (TE buffer), 1 mM GAP, 0.2 mM NADH, and 0.9 units of α-GDH (20 μg/mL); the reaction was initiated by addition of 5 ng/mL of WT, C222V or C222M GlTIM, 10 ng/mL of C222N, 20 ng/mL of C222D or C222F, and 200 ng/mL of C222K. Kinetic, binding and stability data were analyzed by non-linear regression calculations with Origin software.\n(§2) Determination of Km and Vmax was performed by fitting initial velocity data at GAP concentrations ranging from 0.3 to 3 mM to the Michaelis-Menten equation (v = Vmax•S/Km+S) by non-linear regression calculations. The kcat was derived from Vmax by considering a molecular mass for the monomer of 27.7 kDa. The Ki for 2-phosphoglycolate (2-PG) was calculated by global fit of initial velocity curves (GAP from 0.3 to 3 mM) obtained at different fixed concentrations of the inhibitor. Prior to fitting collectively the data to the simple competitive inhibition equation (v = Vmax•S/Km(1+I/Ki)+S), individual data were plotted as double reciprocal plots to confirm competitive inhibition."}, "[2]": {"target": "T2, C222F GlTIM (Giardia intestinalis, UniProt P36186, C222F)", "T2 construct": "made in house; host or cells: E. coli BL21(DE3)pLys", "T2 sequence (P36186 whole entry C222F)": "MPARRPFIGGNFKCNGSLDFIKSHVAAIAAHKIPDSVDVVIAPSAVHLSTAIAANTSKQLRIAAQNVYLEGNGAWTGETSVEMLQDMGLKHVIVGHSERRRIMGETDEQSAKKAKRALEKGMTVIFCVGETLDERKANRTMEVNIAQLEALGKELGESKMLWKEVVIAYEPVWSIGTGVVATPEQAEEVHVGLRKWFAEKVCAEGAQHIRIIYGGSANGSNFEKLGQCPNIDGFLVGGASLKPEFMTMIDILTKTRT", "assay": "Competitive inhibition of TIM activity by 2-PG (global fit)", "format": "biochemical, Giardia lamblia", "details": "2-PG vs C222F", "method": "as §1, §2"}, "[3]": {"target": "T3, C222K GlTIM (Giardia intestinalis, UniProt P36186, C222K)", "T3 construct": "made in house; host or cells: E. coli BL21(DE3)pLys", "T3 sequence (P36186 whole entry C222K)": "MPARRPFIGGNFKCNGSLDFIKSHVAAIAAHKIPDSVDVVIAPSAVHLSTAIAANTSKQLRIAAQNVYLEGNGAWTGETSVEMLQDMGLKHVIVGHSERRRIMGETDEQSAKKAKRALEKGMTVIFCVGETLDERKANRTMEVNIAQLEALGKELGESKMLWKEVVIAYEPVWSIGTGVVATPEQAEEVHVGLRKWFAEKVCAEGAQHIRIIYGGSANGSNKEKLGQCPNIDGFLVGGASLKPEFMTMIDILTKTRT", "assay": "Competitive inhibition of TIM activity by 2-PG (global fit)", "format": "biochemical, Giardia lamblia", "details": "highest concentrations of 2-PG that could be assayed", "method": "as §1, §2"}, "[4]": {"target": "T4, C222M GlTIM (Giardia intestinalis, UniProt P36186, C222M)", "T4 construct": "made in house; host or cells: E. coli BL21(DE3)pLys", "T4 sequence (P36186 whole entry C222M)": "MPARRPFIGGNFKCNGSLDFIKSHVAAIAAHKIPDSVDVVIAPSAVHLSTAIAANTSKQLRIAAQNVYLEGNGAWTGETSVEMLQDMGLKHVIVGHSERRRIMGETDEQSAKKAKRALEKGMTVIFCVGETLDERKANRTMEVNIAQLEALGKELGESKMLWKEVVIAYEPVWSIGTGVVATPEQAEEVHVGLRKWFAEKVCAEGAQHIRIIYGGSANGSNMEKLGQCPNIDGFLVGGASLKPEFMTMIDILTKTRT", "assay": "Competitive inhibition of TIM activity by 2-PG (global fit)", "format": "biochemical, Giardia lamblia", "method": "as §1, §2"}, "[5]": {"target": "T5, C222N GlTIM (Giardia intestinalis, UniProt P36186, C222N)", "T5 construct": "made in house; host or cells: E. coli BL21(DE3)pLys", "T5 sequence (P36186 whole entry C222N)": "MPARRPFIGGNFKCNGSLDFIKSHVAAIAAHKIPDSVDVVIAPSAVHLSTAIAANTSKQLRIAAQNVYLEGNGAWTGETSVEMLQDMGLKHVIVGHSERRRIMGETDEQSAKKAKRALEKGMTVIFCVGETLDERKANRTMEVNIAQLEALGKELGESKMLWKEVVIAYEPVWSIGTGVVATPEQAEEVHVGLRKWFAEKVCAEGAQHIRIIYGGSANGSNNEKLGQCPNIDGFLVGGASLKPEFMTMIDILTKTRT", "assay": "Competitive inhibition of TIM activity by 2-PG (global fit)", "format": "biochemical, Giardia lamblia", "method": "as §1, §2"}, "[6]": {"target": "T6, C222V GlTIM (Giardia intestinalis, UniProt P36186, C222V)", "T6 construct": "made in house; host or cells: E. coli BL21(DE3)pLys", "T6 sequence (P36186 whole entry C222V)": "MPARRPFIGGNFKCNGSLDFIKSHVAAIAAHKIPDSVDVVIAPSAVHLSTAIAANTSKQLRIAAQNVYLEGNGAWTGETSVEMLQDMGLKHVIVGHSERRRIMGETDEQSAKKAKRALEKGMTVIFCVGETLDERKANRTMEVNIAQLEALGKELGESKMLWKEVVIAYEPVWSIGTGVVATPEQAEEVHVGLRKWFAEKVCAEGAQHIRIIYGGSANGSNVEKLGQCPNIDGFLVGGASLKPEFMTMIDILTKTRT", "assay": "Competitive inhibition of TIM activity by 2-PG (global fit)", "format": "biochemical, Giardia lamblia", "method": "as §1, §2"}, "[7]": {"target": "T7, WT GlTIM (Giardia intestinalis, UniProt P36186)", "T7 construct": "made in house; host or cells: E. coli BL21(DE3)pLys", "assay": "Competitive inhibition of TIM activity by 2-PG (global fit)", "format": "biochemical, Giardia lamblia", "details": "2-PG vs WT GlTIM", "method": "as §1, §2"}, "[8]": {"target": "T1, C222D GlTIM", "assay": "Binding of 2-PG by change in intrinsic fluorescence", "design": "species or system Giardia lamblia", "method": "(§3) The change in the intrinsic fluorescence of GlTIM in response to the addition of the transition state analog 2-PG was used to determine the affinity of the enzyme for this ligand, as previously reported. Intrinsic fluorescence spectra were collected before and after each addition of 1 or 2 μL aliquots of a 3 or 30 mM stock solution of 2-PG. The final volume added to the fluorescence cell was always less than 5% of the total volume; there was no effect on the absorbance of the protein solution at 280 nm at the highest 2-PG concentration assayed. In all cases, the spectra of samples without protein were subtracted from those that contained the enzyme. For each mutant, the maximal fluorescence intensity at 332 nm, for every 2-PG concentration, was plotted and fitted to y = (α/2Et)(Et+x+Kd) - √ (Et+x+Kd)^2– (4xEt), where y = 1 - (Fi/F) (Fi, initial fluorescence; F, fluorescence intensity at each 2-PG concentration); α is the maximal fluorescence change attained at saturating concentration of the ligand, Et represents the concentration of binding sites, Kd is the equilibrium dissociation constant and x is the concentration of 2-PG [21], [23]."}, "[9]": {"target": "T2, C222F GlTIM", "assay": "Binding of 2-PG by change in intrinsic fluorescence", "design": "species or system Giardia lamblia", "method": "as §3"}, "[10]": {"target": "T3, C222K GlTIM", "assay": "Binding of 2-PG by change in intrinsic fluorescence", "design": "species or system Giardia lamblia", "method": "as §3"}, "[11]": {"target": "T4, C222M GlTIM", "assay": "Binding of 2-PG by change in intrinsic fluorescence", "design": "species or system Giardia lamblia", "method": "as §3"}, "[12]": {"target": "T5, C222N GlTIM", "assay": "Binding of 2-PG by change in intrinsic fluorescence", "design": "species or system Giardia lamblia", "method": "as §3"}, "[13]": {"target": "T6, C222V GlTIM", "assay": "Binding of 2-PG by change in intrinsic fluorescence", "design": "species or system Giardia lamblia", "method": "as §3"}, "[14]": {"target": "T7, WT GlTIM", "assay": "Binding of 2-PG by change in intrinsic fluorescence", "design": "species or system Giardia lamblia", "details": "2-PG vs WT GlTIM, fluorescence at 332 nm", "method": "as §3"}, "[15]": {"system": "GlTIM", "details": "cited from earlier work"}, "[16]": {"system": "yeast TIM, tyrosine by phenylalanine in the YGGS motif", "design": "method as in PMID 1390632", "details": "mutant vs wild type yeast TIM; cited from earlier work"}, "[17]": {"system": "yeast TIM, serine replaced by alanine in the YGGS motif", "design": "method as in PMID 1390632", "details": "mutant vs wild type yeast TIM; cited from earlier work"}}, "note": "Where “and” joins values, the source holds several entries; their conditions need not be identical. Identical values can stand only once."}
{"smiles": "O=C(O)COP(=O)(O)O", "note": "[2-PG, 2-phosphoglycolate]", "values": [{"measurement": "Ki", "setting": "[1]", "result": "1480 ± 168", "unit": "µM"}, {"measurement": "Ki", "setting": "[2]", "result": "7280 ± 2010", "unit": "µM"}, {"measurement": "inhibition by 2-PG", "setting": "[3]", "result": "only minimal inhibition was observed"}, {"measurement": "Ki", "setting": "[4]; 2-PG vs C222M, competitive", "result": "325 ± 50", "unit": "µM"}, {"measurement": "Ki MUT/Ki WT ratio", "setting": "[4]; C222M vs WT", "result": "3.7 and 3.74"}, {"measurement": "Ki", "setting": "[5]; 2-PG vs C222N, competitive", "result": "560 ± 59", "unit": "µM"}, {"measurement": "Ki MUT/Ki WT ratio", "setting": "[5]; C222N vs WT", "result": "6.4 and 6.44"}, {"measurement": "Ki", "setting": "[6]; 2-PG vs C222V, competitive", "result": "98 ± 10", "unit": "µM"}, {"measurement": "Ki MUT/Ki WT ratio", "setting": "[6]; C222V vs WT", "result": 1.13}, {"measurement": "Ki", "setting": "[7]", "result": "87 ± 15", "unit": "µM"}, {"measurement": "changes in fluorescence induced by 2-PG", "setting": "[8]", "result": "minimal"}, {"measurement": "changes in fluorescence induced by 2-PG", "setting": "[9]", "result": "minimal"}, {"measurement": "changes in fluorescence induced by 2-PG", "setting": "[10]", "result": "minimal"}, {"measurement": "Kd", "setting": "[11]; 2-PG vs C222M, fluorescence at 332 nm", "result": "79.4 ± 8.5", "unit": "µM"}, {"measurement": "Kd MUT/Kd WT ratio", "setting": "[11]; C222M vs WT", "result": 3.01}, {"measurement": "Kd", "setting": "[12]; 2-PG vs C222N, fluorescence at 332 nm", "result": "113 ± 41.7", "unit": "µM"}, {"measurement": "Kd MUT/Kd WT ratio", "setting": "[12]; C222N vs WT", "result": 4.29}, {"measurement": "Kd", "setting": "[13]; 2-PG vs C222V, fluorescence at 332 nm", "result": "57.4 ± 7.1", "unit": "µM"}, {"measurement": "Kd MUT/Kd WT ratio", "setting": "[13]; C222V vs WT", "result": 2.17}, {"measurement": "Kd", "setting": "[14]", "result": "26.4 ± 2.6", "unit": "µM"}]}
{"smiles": "O=C(O)c1cc(SSc2ccc([N+](=O)[O-])c(C(=O)O)c2)ccc1[N+](=O)[O-]", "note": "[DTNB, 5,5′-dithio-bis (2-nitrobenzoic acid)]", "values": [{"measurement": "catalytic activity of GlTIM after derivatization of C222", "setting": "[15]", "result": "completely abolished"}, {"measurement": "inactivation of GlTIM", "setting": "[15]", "result": "total inactivation"}]}
{"smiles": "CSS(C)(=O)=O", "note": "[MMTS, methylmethane thiosulfonate]", "values": [{"measurement": "catalytic activity of GlTIM after derivatization of C222", "setting": "[15]", "result": "reduced the catalytic activity of GlTIM by half"}, {"measurement": "decrease of the kcat/Km ratio after modification of C222", "setting": "[15]", "result": "three-fold decrease"}]}
{"smiles": "O=C(COP(=O)(O)O)NO", "note": "[PGH, phosphoglycolohydroxamate]", "values": [{"measurement": "increase in the Kd", "setting": "[16]", "result": 200, "unit": "fold"}, {"measurement": "change of affinity", "setting": "[17]", "result": 5, "unit": "fold"}]}
